Counter-ions that a name gives are not always drawn.
Experiments:
[1] = biological target: T1, human Adenosine A2a receptor (Homo sapiens, UniProt P29274); assay: Adenosine receptor TR-FRET binding assay (CA200645 displacement), A2a; conditions: 100 nM CA200645, CHO cell membranes, 2 hours at room temperature
T1 construct: expressed in transfected cells; host or cells: CHO cell membranes

[2] = biological target: T2, human Adenosine A2b receptor (Homo sapiens, UniProt P29275); assay: Adenosine receptor TR-FRET binding assay (CA200645 displacement), A2b; conditions: 30 nM CA200645, CHO cell membranes, 2 hours at room temperature
T2 construct: expressed in transfected cells; host or cells: CHO cell membranes
T2 sequence (P29275 1-332): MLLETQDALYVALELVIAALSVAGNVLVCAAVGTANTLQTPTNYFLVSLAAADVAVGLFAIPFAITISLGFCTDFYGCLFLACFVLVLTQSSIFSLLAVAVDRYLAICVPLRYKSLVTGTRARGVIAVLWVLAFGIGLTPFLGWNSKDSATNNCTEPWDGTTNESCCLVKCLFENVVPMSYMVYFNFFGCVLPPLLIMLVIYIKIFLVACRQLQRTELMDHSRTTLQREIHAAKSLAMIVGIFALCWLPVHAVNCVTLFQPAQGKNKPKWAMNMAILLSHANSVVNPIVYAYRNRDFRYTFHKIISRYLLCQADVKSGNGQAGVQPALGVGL

[3] = biological target: T3, human Adenosine A1 receptor (Homo sapiens, UniProt P30542); assay: Adenosine receptor TR-FRET binding assay (CA200645 displacement), A1
T3 sequence (P30542 1-326): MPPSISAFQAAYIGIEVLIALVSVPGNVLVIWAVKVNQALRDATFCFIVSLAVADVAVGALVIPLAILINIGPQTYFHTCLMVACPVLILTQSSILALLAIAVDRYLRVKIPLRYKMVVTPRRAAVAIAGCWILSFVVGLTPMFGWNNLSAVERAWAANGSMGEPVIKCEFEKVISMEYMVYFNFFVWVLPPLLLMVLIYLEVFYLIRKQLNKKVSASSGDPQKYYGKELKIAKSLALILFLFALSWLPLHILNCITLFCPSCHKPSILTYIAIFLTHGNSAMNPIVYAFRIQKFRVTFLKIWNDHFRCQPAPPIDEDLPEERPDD

[4] = biological target: T4, human Adenosine A3 receptor (Homo sapiens, UniProt P0DMS8); assay: Adenosine receptor TR-FRET binding assay (CA200645 displacement), A3
T4 sequence (P0DMS8 1-318): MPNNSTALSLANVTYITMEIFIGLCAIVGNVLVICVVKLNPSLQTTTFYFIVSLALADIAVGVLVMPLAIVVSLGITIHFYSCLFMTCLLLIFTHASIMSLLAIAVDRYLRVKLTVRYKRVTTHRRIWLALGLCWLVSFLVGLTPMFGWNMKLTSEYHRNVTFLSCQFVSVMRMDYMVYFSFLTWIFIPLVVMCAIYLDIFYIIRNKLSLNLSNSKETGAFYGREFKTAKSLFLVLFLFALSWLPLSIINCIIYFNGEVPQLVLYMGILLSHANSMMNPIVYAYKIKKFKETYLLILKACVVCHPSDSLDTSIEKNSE

T1 sequence (P29274 whole entry): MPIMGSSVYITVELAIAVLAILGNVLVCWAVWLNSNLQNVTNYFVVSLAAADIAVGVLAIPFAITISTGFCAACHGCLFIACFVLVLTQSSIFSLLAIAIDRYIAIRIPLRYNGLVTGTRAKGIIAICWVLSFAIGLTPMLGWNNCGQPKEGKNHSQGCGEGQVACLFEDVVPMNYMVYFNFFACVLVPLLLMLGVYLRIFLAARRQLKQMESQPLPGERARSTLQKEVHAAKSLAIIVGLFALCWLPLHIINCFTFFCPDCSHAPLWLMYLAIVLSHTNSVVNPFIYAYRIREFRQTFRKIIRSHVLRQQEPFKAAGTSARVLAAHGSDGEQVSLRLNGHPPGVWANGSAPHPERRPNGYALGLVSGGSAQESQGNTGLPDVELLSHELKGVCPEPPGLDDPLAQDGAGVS

Compound: N#Cc1c(-c2ccco2)nn2ccc(NCCO)nc12 [Example 55.2, 2-(2-furyl)-5-(2-hydroxyethylamino)pyrazolo[1,5-a]pyrimidine-3-carbonitrile]
- Ki [1]: 0.244 µM
- Ki [2]: 1.7 µM
- Ki [3]: 0.284 µM
- Ki [4]: 4.18 µM

Compound: N#Cc1c(-c2ccco2)nn2ccc(NC[C@H]3CCCNC3)nc12 [Example 56, 2-(2-Furyl)-5-(3-piperidylmethylamino)pyrazolo[1,5-a]pyrimidine-3-carbonitrile hydrochloride]
- Ki [1]: 0.141 µM
- Ki [2]: 2.7 µM
- Ki [3]: 0.521 µM
- Ki [4]: > 1 µM

Compound: N#Cc1c(-c2ncco2)nn2ccc(NCc3ccccc3)nc12 [Example 57, 5-(Benzylamino)-2-oxazol-2-yl-pyrazolo[1,5-a]pyrimidine-3-carbonitrile]
- Ki [1]: 0.0247 µM
- Ki [2]: 1.49 µM
- Ki [3]: 0.236 µM
- Ki [4]: 1.87 µM

Compound: Cc1cccnc1CN1CCN(c2ccn3nc(-c4cccc(F)c4)c(C#N)c3n2)CC1 [Example 60, 2-(3-Fluorophenyl)-5-[4-[(3-methyl-2-pyridyl)methyl]piperazin-1-yl]pyrazolo[1,5-a]pyrimidine-3-carbonitrile]
- Ki [1]: 0.0339 µM
- Ki [2]: 4.6 µM
- Ki [3]: 0.027 µM
- Ki [4]: 1 µM

Compound: c1coc(-c2cc3nc(NCc4nccs4)ccn3n2)c1 [Example 74, 2-(2-Furyl)-N-(thiazol-2-ylmethyl)pyrazolo[1,5-a]pyrimidin-5-amine]
- Ki [1]: 0.587 µM
- Ki [2]: 6.24 µM
- Ki [3]: 0.649 µM
- Ki [4]: 0.16 µM

Compound: OCc1c(-c2ccco2)nn2ccc(NCc3ccccc3)nc12 [Example 75, [5-(Benzylamino)-2-(2-furyl)pyrazolo[1,5-a]pyrimidin-3-yl]methanol]
- Ki [1]: 0.153 µM
- Ki [2]: 1.46 µM
- Ki [3]: 1.14 µM
- Ki [4]: 1.74 µM

Compound: Nc1ccn2nc(-c3ccco3)c(-c3ccncc3)c2n1 [Example 79, 2-(2-Furyl)-3-(4-pyridyl)pyrazolo[1,5-a]pyrimidin-5-amine]
- Ki [1]: 0.146 µM
- Ki [2]: 0.034 µM
- Ki [3]: 0.014 µM
- Ki [4]: 2.08 µM

Compound: N#Cc1c(-c2ccco2)nn2ccc(NC[C@H]3CCCN3)nc12 [Example 80, 2-(2-furyl)-5-[[(2R)-pyrrolidin-2-yl]methylamino]pyrazolo[1,5-a]pyrimidine-3-carbonitrile hydrochloride]
- Ki [1]: 0.155 µM
- Ki [2]: 4.46 µM
- Ki [3]: 0.988 µM
- Ki [4]: > 1 µM

Compound: Cc1cc(-c2c(-c3ccc(F)cc3)nn3ccc(N)nc23)cc(Cl)n1 [Example 88, 3-(2-Chloro-6-methyl-4-pyridyl)-2-(4-fluorophenyl)pyrazolo[1,5-a]pyrimidin-5-amine]
- Ki [1]: 0.0357 µM
- Ki [2]: 0.063 µM
- Ki [3]: 0.029 µM
- Ki [4]: 0.536 µM

Compound: Cc1cc(-c2c(-c3cccc(C#N)c3)nn3ccc(C(=N)NC(C)(C)C)nc23)cc(Cl)n1 [Example 90, N-tert-Butyl-3-(2-chloro-6-methyl-4-pyridyl)-2-(3-cyanophenyl)pyrazolo [1,5-a]pyrimidine-5-carboxamidine]
- Ki [1]: 0.0123 µM
- Ki [2]: 0.08 µM
- Ki [3]: 1.84 µM
- Ki [4]: > 1 µM

Compound: Cc1cc(-c2c(-c3cccc(C#N)c3)nn3ccc(C(=O)NCC4CNC(=O)CO4)nc23)cc(C)n1 (centres unmarked) [Example 92.5]
- Ki [1]: 0.0092 µM
- Ki [2]: 0.017 µM
- Ki [3]: 0.438 µM
- Ki [4]: > 1 µM

Compound: Cc1cc(-c2c(-c3cccc(C#N)c3)nn3ccc(C(=O)NC(C)C4(O)COC4)nc23)cc(C)n1 (centres unmarked) [Example 92.6]
- Ki [1]: 0.0007 µM
- Ki [2]: 0.022 µM
- Ki [3]: 0.167 µM
- Ki [4]: > 1 µM

Compound: Cc1cc(-c2c(-c3cccc(C#N)c3)nn3ccc(C(=O)N4CCC5(CC4)NC(=O)NC5=O)nc23)cc(C)n1 [Example 92.7]
- Ki [1]: 0.0276 µM
- Ki [2]: 0.003 µM
- Ki [3]: 0.158 µM
- Ki [4]: > 1 µM

Compound: Cc1cc(-c2c(-c3cccc(C#N)c3)nn3ccc(C(=O)N[C@H]4COC[C@H]4O)nc23)cc(C)n1 [Example 92.8]
- Ki [1]: 0.0006 µM
- Ki [2]: 0.014 µM
- Ki [3]: 0.07 µM
- Ki [4]: > 1 µM

Compound: Cc1cc(-c2c(-c3cccc(C#N)c3)nn3ccc(C(=O)NC[C@H]4CCC(=O)N4)nc23)cc(C)n1 [Example 92.9]
- Ki [1]: 0.001 µM
- Ki [2]: 0.026 µM
- Ki [3]: 0.15 µM
- Ki [4]: > 1 µM

Compound: Cc1cc(-c2c(-c3cccc(C#N)c3)nn3ccc(C(=O)NCC4CCCNC4=O)nc23)cc(C)n1 (centres unmarked) [Example 92.15]
- Ki [1]: 0.0003 µM
- Ki [2]: 0.019 µM
- Ki [3]: 0.15 µM
- Ki [4]: 0.599 µM

Compound: Cc1cc(-c2c(-c3cccc(C#N)c3)nn3ccc(C(=O)NCC4(C)CCC(=O)N4)nc23)cc(C)n1 (centres unmarked) [Example 92.16]
- Ki [1]: 0.0007 µM
- Ki [2]: 0.059 µM
- Ki [3]: 0.232 µM
- Ki [4]: > 1 µM

Compound: Cc1cc(-c2c(-c3cccc(C#N)c3)nn3ccc(C(=O)NCC4(C)NC(=O)NC4=O)nc23)cc(C)n1 (centres unmarked) [Example 92.17]
- Ki [1]: 0.0011 µM
- Ki [2]: 0.028 µM
- Ki [3]: 0.246 µM
- Ki [4]: > 1 µM

Compound: Cc1cc(-c2c(-c3cccc(C#N)c3)nn3ccc(C(=O)NCC4(C)CCC(=O)NC4)nc23)cc(C)n1 (centres unmarked) [Example 92.18]
- Ki [1]: 0.0007 µM
- Ki [2]: 0.051 µM
- Ki [3]: 0.028 µM
- Ki [4]: > 1 µM

Compound: Cc1cc(-c2c(-c3cccc(C#N)c3)nn3ccc(C(=O)NCC4CCC(=O)NC4)nc23)cc(C)n1 (centres unmarked) [Example 92.19]
- Ki [1]: 0.0192 µM
- Ki [2]: 0.115 µM
- Ki [3]: 0.179 µM
- Ki [4]: > 1 µM

Compound: Cc1cc(-c2c(-c3cccc(C#N)c3)nn3ccc(C(=O)N[C@H]4C[C@](C)(O)C4)nc23)cc(C)n1 [Example 92.20]
- Ki [1]: 0.0012 µM
- Ki [2]: 0.037 µM
- Ki [3]: 0.301 µM
- Ki [4]: > 1 µM

Compound: Cc1cc(-c2c(-c3cccc(C#N)c3)nn3ccc(C(=O)N[C@H]4CC[C@@](C)(O)CC4)nc23)cc(C)n1 [Example 92.23]
- Ki [1]: 0.0034 µM
- Ki [2]: 0.035 µM
- Ki [3]: 1.12 µM
- Ki [4]: > 1 µM

Compound: Cc1cc(-c2c(-c3cccc(C#N)c3)nn3ccc(C(=O)NC4CNC(=O)C4)nc23)cc(C)n1 (centres unmarked) [Example 92.25]
- Ki [1]: 0.0054 µM
- Ki [2]: 0.069 µM
- Ki [3]: 0.634 µM
- Ki [4]: > 1 µM

Compound: Cc1cc(-c2c(-c3cccc(C#N)c3)nn3ccc(C(=O)NCC4CNC(=O)C4)nc23)cc(C)n1 (centres unmarked) [Example 92.26]
- Ki [1]: 0.0058 µM
- Ki [2]: 0.022 µM
- Ki [3]: 0.175 µM
- Ki [4]: > 1 µM

Compound: Cc1cc(-c2c(-c3cccc(C#N)c3)nn3ccc(C(=O)NC[C@H]4CNC(=O)C4)nc23)cc(C)n1 [Example 92.27]
- Ki [1]: 0.0066 µM
- Ki [2]: 0.016 µM
- Ki [3]: 0.21 µM
- Ki [4]: > 1 µM

Compound: Cc1cc(-c2c(-c3cccc(C#N)c3)nn3ccc(C(=O)NC[C@@H]4CNC(=O)C4)nc23)cc(C)n1 [Example 92.28]
- Ki [1]: 0.0032 µM
- Ki [2]: 0.064 µM
- Ki [3]: 0.345 µM
- Ki [4]: > 1 µM

Compound: Cc1cc(-c2c(-c3cccc(C#N)c3)nn3ccc(C(=O)N[C@H]4COC[C@@H]4O)nc23)cc(C)n1 [Example 92.29]
- Ki [1]: 0.0019 µM
- Ki [2]: 0.034 µM
- Ki [3]: 0.412 µM
- Ki [4]: > 1 µM

Compound: Cc1cc(-c2c(-c3cccc(C#N)c3)nn3ccc(C(=O)N[C@@H]4COC[C@@H]4O)nc23)cc(C)n1 [Example 92.30]
- Ki [1]: 0.0008 µM
- Ki [2]: 0.036 µM
- Ki [3]: 0.361 µM
- Ki [4]: > 1 µM

Compound: Cc1cc(-c2c(-c3cccc(C#N)c3)nn3ccc(C(=O)N[C@@H]4COC[C@H]4O)nc23)cc(C)n1 [Example 92.31]
- Ki [1]: 0.0021 µM
- Ki [2]: 0.057 µM
- Ki [3]: 0.333 µM
- Ki [4]: > 1 µM
